Assay results: patent US12365696B2, “Small-molecule focal adhesion kinase (FAK) inhibitors” (DANA-FARBER CANCER INSTITUTE, INC., priority 2019, dated 2025)
Like-named read-outs stand apart in the source and are kept apart here.

Legend:
SRPK1 = SRPK1 (Homo sapiens (Human), UniProt Q96SB4); experiment: KINOMEscan; assay type: binding; settings: SRPK1, 10000 nM; read-out: Percent Control
NIM1 = NIM1 (Homo sapiens (Human), UniProt Q8IY84); experiment: KINOMEscan; assay type: binding; settings: NIM1, 10000 nM; read-out: Percent Control
MET(Y1235D) = MET(Y1235D) (Homo sapiens (Human), UniProt P08581, Y1235D); experiment: KINOMEscan; assay type: binding; settings: 10000 nM, read-out: Percent Control
MELK = MELK (Homo sapiens (Human), UniProt Q14680); experiment: KINOMEscan; assay type: binding; settings: 10000 nM, read-out: Percent Control
ERK4 = ERK4 (Homo sapiens (Human), UniProt P31152); experiment: KINOMEscan; assay type: binding; settings: ERK4, 10000 nM; read-out: Percent Control
DDR2 = DDR2 (Homo sapiens (Human), UniProt Q16832); experiment: KINOMEscan; assay type: binding; settings: DDR2, 10000 nM; read-out: Percent Control
NDR2 = NDR2 (Homo sapiens (Human), UniProt Q9Y2H1); experiment: KINOMEscan; assay type: binding; settings: NDR2, 10000 nM; read-out: Percent Control
EPHB1 = EPHB1 (Homo sapiens (Human), UniProt P54762); experiment: KINOMEscan; assay type: binding; settings: EPHB1, 10000 nM; read-out: Percent Control
ABL2 = ABL2 (Homo sapiens (Human), UniProt P42684); experiment: KINOMEscan; assay type: binding; settings: ABL2, 10000 nM; read-out: Percent Control
[1] = molecular target: TYK2(JH1domain-catalytic) (Homo sapiens (Human), UniProt P29597); experiment: KINOMEscan; assay type: binding; settings: 10000 nM, read-out: Percent Control
EPHB3 = EPHB3 (Homo sapiens (Human), UniProt P54753); experiment: KINOMEscan; assay type: binding; settings: EPHB3, 10000 nM; read-out: Percent Control
FGFR3(G697C) = FGFR3(G697C) (Homo sapiens (Human), UniProt P22607, G697C); experiment: KINOMEscan; assay type: binding; settings: 10000 nM, read-out: Percent Control
PIK3CA(M1043I) = PIK3CA(M1043I) (Homo sapiens (Human), UniProt P42336, M1043I); experiment: KINOMEscan; assay type: binding; settings: 10000 nM, read-out: Percent Control
MYLK4 = MYLK4 (Homo sapiens (Human), UniProt Q86YV6); experiment: KINOMEscan; assay type: binding; settings: MYLK4, 10000 nM; read-out: Percent Control
MAP4K5 = MAP4K5 (Homo sapiens (Human), UniProt Q9Y4K4); experiment: KINOMEscan; assay type: binding; settings: MAP4K5, 10000 nM; read-out: Percent Control
[2] = molecular target: ABL1(Q252H)-nonphosphorylated (Homo sapiens (Human), UniProt P00519, Q252H); experiment: KINOMEscan; assay type: binding; settings: 10000 nM, read-out: Percent Control
GRK3 = GRK3 (Homo sapiens (Human), UniProt P35626); experiment: KINOMEscan; assay type: binding; settings: GRK3, 10000 nM; read-out: Percent Control
RAF1 = RAF1 (Homo sapiens (Human), UniProt P04049); experiment: KINOMEscan; assay type: binding; settings: RAF1, 10000 nM; read-out: Percent Control
NEK4 = NEK4 (Homo sapiens (Human), UniProt P51957); experiment: KINOMEscan; assay type: binding; settings: NEK4, 10000 nM; read-out: Percent Control
MDA-MB-231 cells = experiment: 2D-adherent monolayer cell viability (Cell Titer-Glo), 120 hrs; assay type: cell-based; settings: Homo sapiens
Description: For 2D-adherent monolayer experiments, MDA-MB-231 cells were plated in 384-well format and allowed to adhere overnight. Cells were treated with indicated molecules from compound stock plates using a JANUS® Workstation pin tool for 120 hrs. To measure cell viability, Cell Titer-Glo® was added to wells for 15 minutes at room temperature and luminescence was measured on an EnVision™ 2104 Multilabel Plate Reader.
Inventive compound treatment (0.00063-20 μM) led to antiproliferative effects in MDA-MB-231 cells cultured as 2D-adherent monolayers or as ultra-low adherent 3D-spheroid suspensions (Table 5).

JNK1 = JNK1 (Homo sapiens (Human), UniProt P45983); experiment: KINOMEscan; assay type: binding; settings: JNK1, 10000 nM; read-out: Percent Control
TNK2 = TNK2 (Homo sapiens (Human), UniProt Q07912); experiment: KINOMEscan; assay type: binding; settings: TNK2, 10000 nM; read-out: Percent Control
CLK2 = CLK2 (Homo sapiens (Human), UniProt P49760); experiment: KINOMEscan; assay type: binding; settings: CLK2, 10000 nM; read-out: Percent Control
CAMK1 = CAMK1 (Homo sapiens (Human), UniProt Q14012); experiment: KINOMEscan; assay type: binding; settings: CAMK1, 10000 nM; read-out: Percent Control
LATS2 = LATS2 (Homo sapiens (Human), UniProt Q9NRM7); experiment: KINOMEscan; assay type: binding; settings: LATS2, 10000 nM; read-out: Percent Control
CDKL5 = CDKL5 (Homo sapiens (Human), UniProt O76039); experiment: KINOMEscan; assay type: binding; settings: CDKL5, 10000 nM; read-out: Percent Control
AMPK-alpha2 = AMPK-alpha2 (Homo sapiens (Human), UniProt P54646); experiment: KINOMEscan; assay type: binding; settings: AMPK-alpha2, 10000 nM; read-out: Percent Control
[3] = molecular target: EGFR(L747-E749del, A750P) (Homo sapiens (Human), UniProt P00533, A750P/DEL747-749); experiment: KINOMEscan; assay type: binding; settings: 10000 nM, read-out: Percent Control
EGFR = EGFR (Homo sapiens (Human), UniProt P00533); experiment: KINOMEscan; assay type: binding; settings: 10000 nM, read-out: Percent Control
[4] = molecular target: ABL1(F317L)-nonphosphorylated (Homo sapiens (Human), UniProt P00519, F317L); experiment: KINOMEscan; assay type: binding; settings: 10000 nM, read-out: Percent Control

MELK, sequence (Q14680 whole entry): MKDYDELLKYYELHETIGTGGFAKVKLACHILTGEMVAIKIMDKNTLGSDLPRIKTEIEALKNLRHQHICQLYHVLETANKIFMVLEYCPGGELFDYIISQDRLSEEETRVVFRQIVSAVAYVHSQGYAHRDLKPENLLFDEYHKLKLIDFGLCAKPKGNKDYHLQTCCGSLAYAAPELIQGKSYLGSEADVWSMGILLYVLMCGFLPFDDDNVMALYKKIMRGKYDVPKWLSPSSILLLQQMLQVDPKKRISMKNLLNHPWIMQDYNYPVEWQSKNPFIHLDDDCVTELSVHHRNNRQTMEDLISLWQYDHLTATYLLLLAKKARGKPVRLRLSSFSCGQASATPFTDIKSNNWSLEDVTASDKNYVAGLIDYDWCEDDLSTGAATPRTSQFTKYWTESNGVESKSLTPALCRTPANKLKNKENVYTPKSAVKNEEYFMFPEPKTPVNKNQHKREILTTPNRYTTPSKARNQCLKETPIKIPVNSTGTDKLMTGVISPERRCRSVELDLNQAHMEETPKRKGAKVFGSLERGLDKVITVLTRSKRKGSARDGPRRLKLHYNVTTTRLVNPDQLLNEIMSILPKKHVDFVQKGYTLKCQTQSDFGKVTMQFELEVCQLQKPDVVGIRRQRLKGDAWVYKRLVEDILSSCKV
EGFR, sequence (P00533 25-1210): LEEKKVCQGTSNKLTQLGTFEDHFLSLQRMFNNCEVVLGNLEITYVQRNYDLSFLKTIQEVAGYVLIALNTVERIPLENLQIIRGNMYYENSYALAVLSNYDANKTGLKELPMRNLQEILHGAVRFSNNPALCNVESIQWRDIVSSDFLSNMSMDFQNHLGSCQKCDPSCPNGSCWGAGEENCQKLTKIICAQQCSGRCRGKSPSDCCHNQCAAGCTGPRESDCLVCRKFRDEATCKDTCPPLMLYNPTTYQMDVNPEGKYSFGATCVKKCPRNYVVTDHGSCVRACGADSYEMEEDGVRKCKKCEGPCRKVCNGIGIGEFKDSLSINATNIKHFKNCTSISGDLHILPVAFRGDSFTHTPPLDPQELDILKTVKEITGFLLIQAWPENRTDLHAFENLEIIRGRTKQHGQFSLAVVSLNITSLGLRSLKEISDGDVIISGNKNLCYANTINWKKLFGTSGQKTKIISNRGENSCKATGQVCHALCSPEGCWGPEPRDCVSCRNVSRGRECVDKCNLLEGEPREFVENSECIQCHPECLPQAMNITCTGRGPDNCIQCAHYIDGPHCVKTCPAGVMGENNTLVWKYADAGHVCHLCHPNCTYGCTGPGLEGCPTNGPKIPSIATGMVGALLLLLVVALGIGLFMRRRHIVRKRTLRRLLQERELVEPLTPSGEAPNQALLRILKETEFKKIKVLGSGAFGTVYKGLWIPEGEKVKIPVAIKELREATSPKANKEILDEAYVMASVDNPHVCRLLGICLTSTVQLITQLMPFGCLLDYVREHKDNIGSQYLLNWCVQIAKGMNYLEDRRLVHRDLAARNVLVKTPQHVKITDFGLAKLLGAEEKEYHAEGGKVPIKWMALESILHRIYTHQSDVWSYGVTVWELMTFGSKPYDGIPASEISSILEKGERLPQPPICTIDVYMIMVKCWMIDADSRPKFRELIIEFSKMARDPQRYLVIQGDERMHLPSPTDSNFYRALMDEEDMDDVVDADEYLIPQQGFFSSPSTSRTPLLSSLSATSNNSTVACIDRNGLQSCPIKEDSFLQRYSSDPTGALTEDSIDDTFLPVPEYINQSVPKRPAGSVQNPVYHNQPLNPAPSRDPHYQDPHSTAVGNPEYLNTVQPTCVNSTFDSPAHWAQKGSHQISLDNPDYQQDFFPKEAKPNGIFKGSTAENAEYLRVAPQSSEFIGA
EPHB3, sequence (P54753 34-998): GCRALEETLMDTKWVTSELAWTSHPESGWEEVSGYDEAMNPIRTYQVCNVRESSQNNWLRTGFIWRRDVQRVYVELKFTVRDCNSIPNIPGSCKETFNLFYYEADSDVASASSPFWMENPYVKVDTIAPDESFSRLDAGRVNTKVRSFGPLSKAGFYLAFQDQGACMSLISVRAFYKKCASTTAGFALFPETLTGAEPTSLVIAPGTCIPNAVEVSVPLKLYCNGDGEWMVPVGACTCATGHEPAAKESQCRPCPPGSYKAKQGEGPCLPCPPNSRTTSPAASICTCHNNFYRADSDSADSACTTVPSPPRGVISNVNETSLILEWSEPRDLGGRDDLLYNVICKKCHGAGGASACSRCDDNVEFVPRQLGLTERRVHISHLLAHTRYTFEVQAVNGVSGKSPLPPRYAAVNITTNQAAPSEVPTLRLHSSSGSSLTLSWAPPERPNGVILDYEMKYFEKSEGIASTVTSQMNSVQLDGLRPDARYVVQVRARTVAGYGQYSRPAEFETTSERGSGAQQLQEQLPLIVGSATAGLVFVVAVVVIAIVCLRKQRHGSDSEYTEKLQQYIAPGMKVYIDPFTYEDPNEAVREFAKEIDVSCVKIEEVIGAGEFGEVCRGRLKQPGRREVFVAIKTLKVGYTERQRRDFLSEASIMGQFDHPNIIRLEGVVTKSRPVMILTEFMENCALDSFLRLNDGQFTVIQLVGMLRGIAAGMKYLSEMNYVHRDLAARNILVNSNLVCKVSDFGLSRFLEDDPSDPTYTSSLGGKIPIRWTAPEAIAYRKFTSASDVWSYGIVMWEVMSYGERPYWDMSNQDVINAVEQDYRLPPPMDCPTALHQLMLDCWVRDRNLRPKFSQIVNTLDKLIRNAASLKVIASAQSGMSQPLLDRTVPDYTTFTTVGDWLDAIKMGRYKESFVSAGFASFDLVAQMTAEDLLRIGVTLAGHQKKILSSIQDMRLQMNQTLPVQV
RAF1, sequence (P04049 whole entry): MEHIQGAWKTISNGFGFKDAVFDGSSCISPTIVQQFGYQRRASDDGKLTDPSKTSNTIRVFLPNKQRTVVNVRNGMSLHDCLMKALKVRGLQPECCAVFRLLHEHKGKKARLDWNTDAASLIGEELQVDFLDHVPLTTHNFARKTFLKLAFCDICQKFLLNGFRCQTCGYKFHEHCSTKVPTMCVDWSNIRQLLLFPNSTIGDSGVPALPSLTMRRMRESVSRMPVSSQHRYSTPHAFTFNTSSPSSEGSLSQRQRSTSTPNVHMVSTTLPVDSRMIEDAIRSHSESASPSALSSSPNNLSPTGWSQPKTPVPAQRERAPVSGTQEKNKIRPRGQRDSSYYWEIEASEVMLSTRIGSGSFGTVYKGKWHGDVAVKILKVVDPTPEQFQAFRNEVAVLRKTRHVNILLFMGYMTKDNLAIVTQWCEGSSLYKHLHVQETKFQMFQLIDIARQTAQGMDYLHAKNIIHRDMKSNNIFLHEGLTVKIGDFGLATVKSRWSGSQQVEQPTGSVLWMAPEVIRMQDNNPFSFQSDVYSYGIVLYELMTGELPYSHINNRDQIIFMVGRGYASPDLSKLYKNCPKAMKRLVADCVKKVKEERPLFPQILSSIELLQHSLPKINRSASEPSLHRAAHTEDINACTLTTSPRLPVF
FGFR3(G697C), sequence (P22607 23-806 G697C): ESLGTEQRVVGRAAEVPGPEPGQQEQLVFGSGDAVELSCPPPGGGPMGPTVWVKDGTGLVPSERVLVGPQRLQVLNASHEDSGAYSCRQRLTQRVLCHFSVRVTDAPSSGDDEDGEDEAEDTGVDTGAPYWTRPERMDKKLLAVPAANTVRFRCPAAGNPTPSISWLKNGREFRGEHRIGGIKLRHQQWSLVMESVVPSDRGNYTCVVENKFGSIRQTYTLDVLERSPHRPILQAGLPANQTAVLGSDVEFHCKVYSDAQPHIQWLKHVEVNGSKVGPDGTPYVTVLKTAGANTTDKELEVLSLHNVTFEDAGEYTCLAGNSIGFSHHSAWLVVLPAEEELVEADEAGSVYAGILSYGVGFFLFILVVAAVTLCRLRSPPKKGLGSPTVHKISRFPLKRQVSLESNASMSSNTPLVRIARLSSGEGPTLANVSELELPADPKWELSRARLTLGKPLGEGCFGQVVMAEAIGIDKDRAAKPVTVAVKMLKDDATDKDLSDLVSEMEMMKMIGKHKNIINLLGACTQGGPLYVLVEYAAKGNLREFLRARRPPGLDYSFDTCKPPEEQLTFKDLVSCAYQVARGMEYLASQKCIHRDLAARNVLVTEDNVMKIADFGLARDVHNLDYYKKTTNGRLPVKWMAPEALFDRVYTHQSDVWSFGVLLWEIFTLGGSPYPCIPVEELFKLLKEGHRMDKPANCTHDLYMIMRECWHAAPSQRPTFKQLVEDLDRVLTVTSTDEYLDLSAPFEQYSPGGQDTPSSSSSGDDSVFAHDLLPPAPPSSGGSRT
CAMK1, sequence (Q14012 whole entry): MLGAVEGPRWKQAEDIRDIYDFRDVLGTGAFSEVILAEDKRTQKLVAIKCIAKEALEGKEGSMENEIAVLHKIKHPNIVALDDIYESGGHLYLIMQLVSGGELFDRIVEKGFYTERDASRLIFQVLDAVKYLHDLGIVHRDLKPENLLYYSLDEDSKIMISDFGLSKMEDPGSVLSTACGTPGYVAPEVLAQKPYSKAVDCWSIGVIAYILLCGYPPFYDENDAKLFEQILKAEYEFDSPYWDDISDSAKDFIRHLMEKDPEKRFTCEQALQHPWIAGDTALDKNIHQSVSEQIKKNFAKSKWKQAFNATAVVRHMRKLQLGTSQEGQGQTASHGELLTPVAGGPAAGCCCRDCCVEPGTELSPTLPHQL
TYK2(JH1domain-catalytic), sequence (P29597 897-1176): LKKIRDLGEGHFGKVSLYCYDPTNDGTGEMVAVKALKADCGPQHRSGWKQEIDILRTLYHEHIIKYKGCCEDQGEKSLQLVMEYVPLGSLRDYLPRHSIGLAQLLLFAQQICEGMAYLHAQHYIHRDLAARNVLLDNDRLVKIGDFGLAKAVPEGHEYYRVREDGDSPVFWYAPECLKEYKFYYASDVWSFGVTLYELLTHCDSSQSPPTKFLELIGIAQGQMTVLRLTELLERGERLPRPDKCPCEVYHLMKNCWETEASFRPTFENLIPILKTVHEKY

Compound | remaining binding at 10 µM (SRPK1) [%] | remaining binding at 10 µM (NIM1) [%] | remaining binding at 10 µM (MET(Y1235D)) [%] | remaining binding at 10 µM (MELK) [%] | remaining binding at 10 µM (ERK4) [%] | remaining binding at 10 µM (DDR2) [%] | remaining binding at 10 µM (NDR2) [%] | remaining binding at 10 µM (EPHB1) [%] | remaining binding at 10 µM (ABL2) [%] | remaining binding at 10 µM [1] [%] | remaining binding at 10 µM (EPHB3) [%] | remaining binding at 10 µM (FGFR3(G697C)) [%] | remaining binding at 10 µM (MYLK4) [%] | remaining binding at 10 µM (MAP4K5) [%] | remaining binding at 10 µM [2] [%] | remaining binding at 10 µM (GRK3) [%] | remaining binding at 10 µM (RAF1) [%] | remaining binding at 10 µM (NEK4) [%] | IC50 (MDA-MB-231 cells) [µM] | remaining binding at 10 µM (JNK1) [%] | further results
COc1cc(N2CCC(N3CCN(C)CC3)CC2)ccc1Nc1ncc2c(n1)N(C)c1sc(C)nc1C(=O)N2 [Compound 3, 6-((2-methoxy-4-(4-(4-methylpiperazin-1-yl)piperidin-1-yl)phenyl)amino)-2,4-dimethyl-4,9-dihydro-10H-pyrimido[5,4-b]thiazolo[5,4-e][1,4]diazepin-10-one] | 100 | 100 | 90 | 99 | 84 | 100 | 86 | 48 | 69 | 84 | 70 | 78 | 77 | 82 | 7.8 | 100 | 85 | 100 | > 10 | 100 | remaining binding at 10 µM (PIK3CA(M1043I); PIK3CA(M1043I)): 87%; remaining binding at 10 µM (TNK2): 20%; remaining binding at 10 µM (CLK2): 72%; remaining binding at 10 µM (CAMK1): 100%; remaining binding at 10 µM (LATS2): 100%; remaining binding at 10 µM (CDKL5): 97%; remaining binding at 10 µM (AMPK-alpha2): 83%; remaining binding at 10 µM [3]: 95%; remaining binding at 10 µM (EGFR): 90%; remaining binding at 10 µM [4]: 3.9%
COc1cc(N2CCC(N3CCN(C)CC3)CC2)ccc1Nc1ncc2c(n1)N(C)c1sc(C)nc1C(=O)N2C [Compound 5, 6-((2-methoxy-4-(4-(4-methylpiperazin-1-yl)piperidin-1-yl)phenyl)amino)-2,4,9-trimethyl-4,9-dihydro-10H-pyrimido[5,4-b]thiazolo[5,4-e][1,4]diazepin-10-one] | 100 | 100 | 98 | 88 | 100 | 100 | 64 | 93 | 95 | 97 | 100 | 100 | 100 | 91 | 93 | 81 | 95 | 100 | 7.6 | 100 | remaining binding at 10 µM (PIK3CA(M1043I); PIK3CA(M1043l)): 100%; remaining binding at 10 µM (TNK2): 87%; remaining binding at 10 µM (CLK2): 100%; remaining binding at 10 µM (CAMK1): 92%; remaining binding at 10 µM (LATS2): 98%; remaining binding at 10 µM (CDKL5): 100%; remaining binding at 10 µM (AMPK-alpha2): 100%; remaining binding at 10 µM [3]: 97%; remaining binding at 10 µM (EGFR): 100%; remaining binding at 10 µM [4]: 54%
